We go through ten compounds from ChEMBL document CHEMBL1201862, “PubChem BioAssay data set” (2004).

Assay [1] addresses T1, Coagulation factor XII (Homo sapiens, UniProt P00748).
T1 sequence (P00748 whole entry): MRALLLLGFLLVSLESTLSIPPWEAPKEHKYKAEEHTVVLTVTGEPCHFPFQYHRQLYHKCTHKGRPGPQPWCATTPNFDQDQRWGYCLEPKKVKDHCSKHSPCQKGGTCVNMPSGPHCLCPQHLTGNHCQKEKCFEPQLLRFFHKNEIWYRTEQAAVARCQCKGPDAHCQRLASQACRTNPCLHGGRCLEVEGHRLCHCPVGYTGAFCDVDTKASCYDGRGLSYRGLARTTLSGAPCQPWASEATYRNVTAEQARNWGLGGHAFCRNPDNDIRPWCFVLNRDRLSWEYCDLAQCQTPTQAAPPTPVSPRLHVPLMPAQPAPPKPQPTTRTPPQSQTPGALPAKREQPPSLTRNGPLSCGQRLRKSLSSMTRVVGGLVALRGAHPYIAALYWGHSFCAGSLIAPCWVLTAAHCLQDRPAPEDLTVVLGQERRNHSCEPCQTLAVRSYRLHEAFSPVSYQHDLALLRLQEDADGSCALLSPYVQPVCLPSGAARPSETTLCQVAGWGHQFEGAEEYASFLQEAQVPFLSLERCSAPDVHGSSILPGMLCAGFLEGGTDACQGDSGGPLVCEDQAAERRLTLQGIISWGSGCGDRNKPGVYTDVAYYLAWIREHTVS
The assay is classed as functional.

The nature of assay [2]: reduction of Shn3 3'UTR-driven luciferase in osteoblasts – cell-based, Clone20 osteoblasts, firefly luciferase, cherry-picked, dose response (AID 624132).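 Note: firefly luciferase luminescence from reporter carrying the Shn3 3'UTR in osteoblasts.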 The assay is classed as functional.
The target of assay [3] is Cytochrome P450 2C9 (Homo sapiens, UniProt P11712).
Chain of Cytochrome P450 2C9 (P11712 whole entry): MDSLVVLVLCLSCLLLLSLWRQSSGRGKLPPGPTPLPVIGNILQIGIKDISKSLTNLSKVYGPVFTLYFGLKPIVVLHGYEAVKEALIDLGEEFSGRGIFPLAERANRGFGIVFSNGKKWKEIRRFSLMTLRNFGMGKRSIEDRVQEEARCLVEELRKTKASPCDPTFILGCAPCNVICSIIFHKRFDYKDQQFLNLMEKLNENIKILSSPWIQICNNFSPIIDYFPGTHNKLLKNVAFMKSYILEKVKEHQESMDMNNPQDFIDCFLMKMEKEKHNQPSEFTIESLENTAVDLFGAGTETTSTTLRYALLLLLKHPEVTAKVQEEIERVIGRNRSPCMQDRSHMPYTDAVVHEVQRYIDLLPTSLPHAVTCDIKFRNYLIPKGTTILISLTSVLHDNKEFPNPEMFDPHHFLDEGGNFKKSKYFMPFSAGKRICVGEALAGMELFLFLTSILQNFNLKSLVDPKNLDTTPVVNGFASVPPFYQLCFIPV
Assay [4] deals with T2, Leucine aminopeptidase (Plasmodium falciparum 3D7, UniProt Q8IL11).
T2 sequence (Q8IL11 whole entry): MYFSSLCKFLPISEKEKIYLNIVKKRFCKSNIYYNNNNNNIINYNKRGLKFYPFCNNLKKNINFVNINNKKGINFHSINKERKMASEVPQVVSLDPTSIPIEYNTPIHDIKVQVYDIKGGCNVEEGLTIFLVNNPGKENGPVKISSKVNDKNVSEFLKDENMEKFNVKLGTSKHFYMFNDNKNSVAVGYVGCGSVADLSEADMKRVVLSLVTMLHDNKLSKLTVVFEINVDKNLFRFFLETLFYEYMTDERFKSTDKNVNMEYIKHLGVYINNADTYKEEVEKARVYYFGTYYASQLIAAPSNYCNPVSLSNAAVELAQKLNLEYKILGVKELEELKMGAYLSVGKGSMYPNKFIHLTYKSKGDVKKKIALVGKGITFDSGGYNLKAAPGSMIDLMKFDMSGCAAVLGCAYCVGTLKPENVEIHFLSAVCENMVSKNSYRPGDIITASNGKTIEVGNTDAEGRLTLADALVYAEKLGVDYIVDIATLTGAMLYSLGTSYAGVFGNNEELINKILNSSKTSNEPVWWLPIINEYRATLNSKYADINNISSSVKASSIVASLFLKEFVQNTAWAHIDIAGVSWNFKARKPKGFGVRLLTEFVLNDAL
The assay can be described thus: P. falciparum M17LAP inhibitors, primary screen, biochemical, fluorogenic H-Leu-NHMec substrate, 1536-well (AID 1619). The assay is classed as functional.

For assay [5], the target named is Cytochrome P450 2C19 (Homo sapiens, UniProt P33261). As to the kind of experiment: Cytochrome panel assay with activity outcomes. Panel member name: p450-cyp2c19 Compounds with AC50 equal or less than 10 uM are considered active. In kind it is functional. To be noted: read-out: AC50.
Chain of Cytochrome P450 2C19 (P33261 whole entry): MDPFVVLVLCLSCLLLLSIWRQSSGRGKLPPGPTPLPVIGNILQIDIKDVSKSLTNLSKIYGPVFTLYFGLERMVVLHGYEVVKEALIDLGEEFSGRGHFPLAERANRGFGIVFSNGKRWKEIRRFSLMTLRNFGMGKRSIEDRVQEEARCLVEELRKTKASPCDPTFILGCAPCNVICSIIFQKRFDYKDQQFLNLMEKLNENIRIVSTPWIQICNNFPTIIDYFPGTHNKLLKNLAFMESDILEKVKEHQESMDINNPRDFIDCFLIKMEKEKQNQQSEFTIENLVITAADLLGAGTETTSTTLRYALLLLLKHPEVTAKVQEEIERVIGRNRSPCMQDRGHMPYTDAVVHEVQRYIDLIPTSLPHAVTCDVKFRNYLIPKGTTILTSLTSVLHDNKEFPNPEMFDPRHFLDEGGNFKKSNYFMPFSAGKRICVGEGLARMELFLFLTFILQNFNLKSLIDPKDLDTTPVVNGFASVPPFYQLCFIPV
Assay [6] has as its target Genome polyprotein (dengue virus type 2, UniProt P29990). As to the kind of experiment: flavivirus cap methylation enzyme inhibition – biochemical, confirmation dose response, primary screen (AID 588689). The assay is classed as functional.

Calls of active or inactive are those of the source.

In general, IC50 refers to the concentration at which inhibition is half-maximal. A word on the AC50: it is the concentration giving half of the maximal activity seen.

Chain of Genome polyprotein (P29990 2492-3391 limits assumed): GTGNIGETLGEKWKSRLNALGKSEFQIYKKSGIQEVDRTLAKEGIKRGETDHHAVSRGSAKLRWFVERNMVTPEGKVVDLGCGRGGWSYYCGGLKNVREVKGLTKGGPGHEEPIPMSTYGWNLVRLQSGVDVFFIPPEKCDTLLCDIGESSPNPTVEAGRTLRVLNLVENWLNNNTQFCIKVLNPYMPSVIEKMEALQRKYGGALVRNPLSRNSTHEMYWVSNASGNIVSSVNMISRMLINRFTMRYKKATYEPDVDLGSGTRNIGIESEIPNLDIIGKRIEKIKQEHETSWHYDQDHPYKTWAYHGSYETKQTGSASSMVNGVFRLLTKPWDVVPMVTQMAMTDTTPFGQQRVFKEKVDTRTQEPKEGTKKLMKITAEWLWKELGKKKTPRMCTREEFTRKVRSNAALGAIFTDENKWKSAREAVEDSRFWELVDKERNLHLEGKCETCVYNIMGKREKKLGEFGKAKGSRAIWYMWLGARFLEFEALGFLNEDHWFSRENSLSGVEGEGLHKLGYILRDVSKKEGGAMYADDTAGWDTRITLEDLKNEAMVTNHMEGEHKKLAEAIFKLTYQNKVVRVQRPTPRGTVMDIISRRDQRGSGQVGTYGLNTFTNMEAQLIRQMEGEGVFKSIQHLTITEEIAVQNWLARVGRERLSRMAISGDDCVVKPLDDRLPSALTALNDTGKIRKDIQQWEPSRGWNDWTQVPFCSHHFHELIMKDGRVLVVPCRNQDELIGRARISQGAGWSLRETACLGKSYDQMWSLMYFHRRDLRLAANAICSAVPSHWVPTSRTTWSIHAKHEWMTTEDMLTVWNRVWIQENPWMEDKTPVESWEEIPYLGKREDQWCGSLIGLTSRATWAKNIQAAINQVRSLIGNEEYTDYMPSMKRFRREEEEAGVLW

Consider `O=Cc1ccc(OCC(=O)Nc2ccccc2C(F)(F)F)cc1`, for which the IC50 in assay [1] is > 50 µM (inactive).

Turning to `O=C(O)CC(=O)Nc1ccccc1C(=O)O`, the IC50 in assay [1] is > 50 µM (inactive).

Regarding `C=CCOC(=O)C1=C(C)N=C2SCCC(=O)N2C1c1cccs1` (stereo not drawn), in assay [2], the AC50 is > 70 µM (inactive). In addition, in assay [1], the IC50 was > 50 µM (inactive).

Take `CCC(C)[C@H](NC(=O)Nc1ccc(Oc2ccccc2)cc1)C(=O)O` (stereo partly drawn): the AC50 was 8.91 µM (inconclusive) in assay [3] and 5.62 µM (inconclusive) in assay [5]. The IC50 in assay [4] is 21.8 µM (active).

Take `COc1ccc(Cl)cc1/C=C1/C(=O)ON=C1C`: the IC50 in assay [6] was > 100 µM (active).

Turning to `COc1cc(C)c(S(=O)(=O)NCc2cccs2)cc1C`, the IC50 in assay [1] is > 50 µM (inactive).

In the case of `CC1=NN(c2ccccc2)C(=O)C1=Cc1ccccc1`, in assay [6], the IC50 is 59.4 µM (active).

For `CCN(CCCNc1cc2c(c(N)c1S(=O)(=O)O)C(=O)c1ccccc1C2=O)c1ccccc1`, in assay [6], the IC50 was 31.6 µM (active).

Consider `c1csc(-c2nc3ccccc3[nH]2)c1`, for which the IC50 in assay [1] is > 50 µM (inactive).

Regarding `COc1cccc2sc(/N=C/N(C)C)nc12`, in assay [1], the IC50 is > 50 µM (inactive).
